Each structure is given as a SMILES string.

One data set deals with PBMC cells. The data set can be described thus: Cell mitosis assay. The data set is classed as cell-based, human. The procedure:
Peripheral blood mononucleocytes (PBMCs) from healthy subjects are separated from whole blood (Quintiles, London, UK) using a density gradient (Histopaque-1077, Sigma-Aldrich, Poole, UK). The PBMCs (3 million cells per sample) are subsequently treated with 2% PHA (Sigma-Aldrich, Poole, UK) for 48 hr, followed by a 20 hr exposure to varying concentrations of test compounds. At 2 hr before collection, PBMCs are treated with demecolcine (0.1 μg/mL) (Invitrogen, Paisley, UK,) to arrest cells in metaphase. To observe mitotic cells, PBMCs are permeabilised and fixed by adding Intraprep (50 μL) (Beckman Coulter, France), and stained with anti-phospho-histone 3 (0.26 ng/L) (#9701; Cell Signalling, Danvers, Mass.) and propidium iodide (1 mg/mL) (Sigma-Aldrich, Poole, UK,) as previously described (Muehlbauer P. A. and Schuler M. J., Mutation Research, 2003, 537:117-130). Fluorescence is observed using an ATTUNE flow cytometer (Invitrogen, Paisley, UK), gating for lymphocytes.

The next data set concerns the target p38 MAPKα (Homo sapiens (Human), UniProt Q16539). Nature of the data set: Enzyme binding assay (Kinomescan) p38 MAPKα. As to conditions: read-out: % Inhibition for kinase binding at 500 nM p38 MAPKα. As to the method: (§1) The kinase enzyme binding activities of compounds disclosed herein were determined using a proprietary assay which measures active site-directed competition binding to an immobilized ligand (Fabian, M. A. et al., Nature Biotechnol., 2005, 23:329-336). These assays were conducted by DiscoverX (formerly Ambit; San Diego, Calif.). The percentage inhibition produced by incubation with a test compound is calculated relative to the non-inhibited control.

A further data set deals with p38 MAPKγ (Homo sapiens (Human), UniProt P53778). Nature of the data set: Enzyme binding assay (Kinomescan) p38 MAPKγ. The conditions noted are these: read-out: % Inhibition for kinase binding at 500 nM p38 MAPKγ. As to the method: (§2) These assays were conducted by DiscoverX (formerly Ambit; San Diego, Calif.). The percentage inhibition produced by incubation with a test compound is calculated relative to the non-inhibited control.
Sequence of p38 MAPKγ (P53778 whole entry): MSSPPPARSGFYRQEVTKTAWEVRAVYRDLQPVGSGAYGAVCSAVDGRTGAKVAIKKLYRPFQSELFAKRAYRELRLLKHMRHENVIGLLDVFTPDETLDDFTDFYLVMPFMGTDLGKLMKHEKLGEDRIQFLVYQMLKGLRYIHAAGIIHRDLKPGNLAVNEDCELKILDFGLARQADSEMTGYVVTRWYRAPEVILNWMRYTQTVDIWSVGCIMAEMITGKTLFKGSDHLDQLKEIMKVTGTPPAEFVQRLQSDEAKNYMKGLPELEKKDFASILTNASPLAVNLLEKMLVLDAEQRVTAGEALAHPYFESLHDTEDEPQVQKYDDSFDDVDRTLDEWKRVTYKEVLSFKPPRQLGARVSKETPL

A further data set has as its target HCK (Homo sapiens (Human), UniProt P08631). The data set can be described thus: Enzyme binding assay (Kinomescan) HCK. As to conditions: read-out: % Inhibition for kinase binding at 500 nM HCK. The procedure:
as §1

For the next data set, the target named is cSrc (Homo sapiens (Human), UniProt P12931). The data set can be described thus: Enzyme binding assay (Kinomescan) cSrc. As to conditions: read-out: % Inhibition for kinase binding at 500 nM cSrc. As to the method:
as §2

The target in another data set is Syk (Homo sapiens (Human), UniProt P43405). Nature of the data set: Enzyme binding assay (Kinomescan) Syk. As to conditions: read-out: % Inhibition for kinase binding at 500 nM Syk. As to the method:
as §1

A further data set concerns the target B-Raf (Homo sapiens (Human), UniProt P15056). The data set can be described thus: Enzyme binding assay (Kinomescan) B-Raf. The conditions noted are these: read-out: % Inhibition for kinase binding at 500 nM B-Raf. The procedure: as §2
A further data set addresses GSK3α (Homo sapiens (Human), UniProt P49840). Nature of the data set: Enzyme binding assay (Kinomescan) GSK3α. As to conditions: read-out: % Inhibition for kinase binding at 500 nM GSK3α. The procedure: as §1

Sequence of p38 MAPKα (Q16539 whole entry): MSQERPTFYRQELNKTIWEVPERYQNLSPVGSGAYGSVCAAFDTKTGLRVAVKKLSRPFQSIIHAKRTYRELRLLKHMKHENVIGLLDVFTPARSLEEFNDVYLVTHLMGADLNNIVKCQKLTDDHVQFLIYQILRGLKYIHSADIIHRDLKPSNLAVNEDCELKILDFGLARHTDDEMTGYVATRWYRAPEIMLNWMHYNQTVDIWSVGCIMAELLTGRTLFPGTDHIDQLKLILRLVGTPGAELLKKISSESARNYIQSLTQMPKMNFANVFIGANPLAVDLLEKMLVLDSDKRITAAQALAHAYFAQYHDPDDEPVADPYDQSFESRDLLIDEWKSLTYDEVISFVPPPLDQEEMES
Sequence of HCK (P08631 22-526): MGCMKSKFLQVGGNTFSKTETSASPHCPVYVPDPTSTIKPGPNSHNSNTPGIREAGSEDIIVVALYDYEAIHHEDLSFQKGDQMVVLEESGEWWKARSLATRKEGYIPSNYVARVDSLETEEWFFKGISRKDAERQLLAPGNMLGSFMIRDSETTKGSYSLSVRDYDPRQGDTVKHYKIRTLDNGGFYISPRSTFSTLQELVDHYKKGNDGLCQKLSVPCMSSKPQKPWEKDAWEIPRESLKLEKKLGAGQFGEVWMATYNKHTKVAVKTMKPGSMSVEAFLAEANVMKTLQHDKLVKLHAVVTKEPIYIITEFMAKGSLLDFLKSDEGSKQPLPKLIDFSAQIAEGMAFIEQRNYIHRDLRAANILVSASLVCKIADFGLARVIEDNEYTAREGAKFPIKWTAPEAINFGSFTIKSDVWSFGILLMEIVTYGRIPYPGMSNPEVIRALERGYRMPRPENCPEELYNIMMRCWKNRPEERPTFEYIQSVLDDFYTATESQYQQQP
Sequence of cSrc (P12931 whole entry, looked up): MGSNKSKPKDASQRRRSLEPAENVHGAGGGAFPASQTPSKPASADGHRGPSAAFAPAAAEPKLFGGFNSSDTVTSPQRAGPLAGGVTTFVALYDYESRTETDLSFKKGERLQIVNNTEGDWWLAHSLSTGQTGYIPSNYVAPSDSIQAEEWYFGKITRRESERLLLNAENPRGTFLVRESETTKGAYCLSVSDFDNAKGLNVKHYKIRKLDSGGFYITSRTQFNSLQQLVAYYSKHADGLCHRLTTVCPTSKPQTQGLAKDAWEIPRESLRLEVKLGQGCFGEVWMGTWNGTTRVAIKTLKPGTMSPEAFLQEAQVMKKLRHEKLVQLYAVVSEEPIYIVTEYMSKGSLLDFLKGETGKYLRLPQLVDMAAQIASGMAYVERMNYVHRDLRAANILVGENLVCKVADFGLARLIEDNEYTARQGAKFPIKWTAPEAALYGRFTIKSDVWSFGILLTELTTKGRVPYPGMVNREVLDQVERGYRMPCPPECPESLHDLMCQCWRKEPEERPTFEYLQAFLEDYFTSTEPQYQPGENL
Sequence of GSK3α (P49840 whole entry): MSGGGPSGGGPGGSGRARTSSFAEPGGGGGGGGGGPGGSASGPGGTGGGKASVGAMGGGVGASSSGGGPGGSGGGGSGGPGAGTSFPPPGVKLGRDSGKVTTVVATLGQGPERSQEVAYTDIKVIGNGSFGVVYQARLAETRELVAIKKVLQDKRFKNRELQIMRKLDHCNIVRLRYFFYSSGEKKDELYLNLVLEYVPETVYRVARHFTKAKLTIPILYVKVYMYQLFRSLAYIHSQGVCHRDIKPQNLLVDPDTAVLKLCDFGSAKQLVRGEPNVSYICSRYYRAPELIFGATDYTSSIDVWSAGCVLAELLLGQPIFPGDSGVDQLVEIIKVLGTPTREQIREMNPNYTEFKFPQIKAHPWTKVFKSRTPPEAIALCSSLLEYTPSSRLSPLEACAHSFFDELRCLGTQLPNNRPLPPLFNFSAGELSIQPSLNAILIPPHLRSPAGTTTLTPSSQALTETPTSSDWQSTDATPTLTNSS
Sequence of B-Raf (P15056 whole entry): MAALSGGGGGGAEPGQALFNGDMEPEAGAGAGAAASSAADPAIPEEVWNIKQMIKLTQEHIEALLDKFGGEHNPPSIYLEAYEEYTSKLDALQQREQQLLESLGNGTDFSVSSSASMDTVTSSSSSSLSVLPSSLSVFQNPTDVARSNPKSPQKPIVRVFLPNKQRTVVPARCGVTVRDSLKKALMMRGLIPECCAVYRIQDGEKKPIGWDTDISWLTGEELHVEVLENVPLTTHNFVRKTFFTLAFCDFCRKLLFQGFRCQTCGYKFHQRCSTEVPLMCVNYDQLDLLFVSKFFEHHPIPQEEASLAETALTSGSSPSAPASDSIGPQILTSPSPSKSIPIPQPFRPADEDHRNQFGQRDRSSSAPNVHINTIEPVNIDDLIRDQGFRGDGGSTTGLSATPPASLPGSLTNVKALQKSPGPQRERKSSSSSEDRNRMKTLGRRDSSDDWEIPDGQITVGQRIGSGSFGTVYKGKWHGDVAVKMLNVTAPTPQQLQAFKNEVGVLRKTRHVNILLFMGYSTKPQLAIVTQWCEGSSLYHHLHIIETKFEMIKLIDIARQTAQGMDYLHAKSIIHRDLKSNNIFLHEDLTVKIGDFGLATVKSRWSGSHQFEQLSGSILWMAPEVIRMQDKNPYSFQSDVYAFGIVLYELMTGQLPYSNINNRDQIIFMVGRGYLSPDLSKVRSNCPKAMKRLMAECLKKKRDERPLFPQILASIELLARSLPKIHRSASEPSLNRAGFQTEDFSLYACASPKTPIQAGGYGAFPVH

As to `Cc1ccc(-n2nc(C(C)(C)C)cc2NC(=O)Nc2ccc(Oc3cc(Nc4ccc5[nH]ncc5c4)ncn3)c3ccccc23)cc1` [Example 23, 1-(4-((6-((1H-indazol-5-yl)amino)pyrimidin-4-yl)oxy)naphthalen-1-yl)-3-(3-(tert-butyl)-1-(p-tolyl)-1H-pyrazol-5-yl)urea], the “Mitosis Assay % inhibition in PBMC cells at 5 μg/mL” value (shortened to “Mitosis Assay % inhibition”) in the data set with PBMC cells was determined as 70.7%.

In the case of `Cc1cc(Nc2nccc(Oc3ccc(NC(=O)Nc4cc(C(C)(C)C)nn4-c4ccc(=O)n(CCN5CCOCC5)c4)c4ccccc34)n2)cc2cn[nH]c12` [Example 89, 1-(3-(tert-butyl)-1-(1-(2-morpholinoethyl)-6-oxo-1,6-dihydropyridin-3-yl)-1H-pyrazol-5-yl)-3-(4-((2-((7-methyl-1H-indazol-5-yl)amino)pyrimidin-4-yl)oxy)naphthalen-1-yl)urea], the “Mitosis Assay % inhibition” value with PBMC cells is 26.7%.

Regarding `COc1ccc(-n2nc(C(C)(C)C)cc2NC(=O)Nc2ccc(Oc3ccnc(Nc4ccc5[nH]ncc5c4)n3)c3ccccc23)cc1` [Example 40, 1-(4-((2-((1H-indazol-5-yl)amino)pyrimidin-4-yl)oxy)naphthalen-1-yl)-3-(3-(tert-butyl)-1-(4-methoxyphenyl)-1H-pyrazol-5-yl)urea], the “Mitosis Assay % inhibition” value in the data set with PBMC cells turned out to be 30.5%.

Turning to `CC(C)(C)c1cc(NC(=O)Nc2ccc(Oc3ccnc(Nc4ccc5[nH]ncc5c4)n3)c3ccccc23)n(-c2ccc(OCCN3CCOCC3)cc2)n1` [Example 12, 1-(4-((2-((1H-Indazol-5-yl)amino)pyrimidin-4-yl)oxy)naphthalen-1-yl)-3-(3-(tert-butyl)-1-(4-(2-morpholinoethoxy)phenyl)-1H-pyrazol-5-yl)urea], the inhibition (commonly the share of the control response that was lost under treatment) at 0.5 µM on p38 MAPKα was 66%; at p38 MAPKγ, 52%; on HCK it was 100%; on cSrc it was 100%; at Syk, 100%; on B-Raf it was 0%. Also, the inhibition at 0.5 µM at GSK3α came out at 31%. The “Mitosis Assay % inhibition” value with PBMC cells is on record as 58.6%.

As for `Cc1ccc(-n2nc(C(C)(C)C)cc2NC(=O)Nc2ccc(Oc3ccnc(Nc4ccc5[nH]ncc5c4)n3)c3ccccc23)cc1` [Example 22, 1-(4-((2-((1H-indazol-5-yl)amino)pyrimidin-4-yl)oxy)naphthalen-1-yl)-3-(3-(tert-butyl)-1-(p-tolyl)-1H-pyrazol-5-yl)urea], the “Mitosis Assay % inhibition” value in the data set with PBMC cells came to 52.7%.

Source of the values: patent US9249125B2, “Pyrazole derivatives as p38 MAP inhibitors” (RESPIVERT LIMITED, priority 2012, dated 2016).
